For data set [1], the system named is APP trafficking through the endosomal‐lysosomal pathway. The data set can be described thus: Confocal colocalization of APP / CAPRIN1 with organelle markers. To be noted: for APP–LAMP1 colocalization: AD iPSC-Ns. The class given is cell-based, human. On the procedure: Cells were grown on glass cover slips coated with 1% Matrigel and treated with drugs. Cells were washed, fixed, permeabilized, blocked, and incubated in primary antibodies diluted in blocking solution (1% v/v BSA solution/5% Goat serum in PBS containing 0.1% Triton X‐100) overnight at 4°C. The cells were washed three times with PBS and incubated in secondary antibodies in a blocking solution for 1 h at room temperature, then washed with PBS, followed by HOECHST staining (Invitrogen) for 5 min, and washed with PBS. The glass coverslips were put on a slide‐in mounting medium ([…]), and the edges were sealed with coverslip sealant (BIOTIUM). Image data were captured and processed with a confocal microscope system (Olympus Fluoview FV1000 or Leica DIVE) and the ImageJ program. For 3D organoids staining, organoids were fixed in 10% formalin overnight at room temperature, followed by incubation in 30% sucrose solution overnight at room temperature, embedded in optimal cutting temperature compound (OCT, FisherScientific), and kept at ‐80°C overnight. Frozen samples were sectioned at 10 µm using a cryostat (Leica) and mounted on microscope slides (Fisherbrand superfrost plus, FisherScientific). Before immunolabeling, sections were rinsed in PBS for 5 min, permeabilized for 30 min in PBS containing 0.3% Triton‐X 100, blocked for 1 h in PBS containing 5% BSA and 0.1% Triton‐X 100, and incubated with primary antibodies diluted in the same blocking solution. Then, secondary staining, mounting, and imaging were followed.
ImageJ (Fiji) program (NIH, Bethesda, MD, USA) was used o analyze images. Pearson's correlation coefficients were calculated with the JACoP plugin from two channels (BIOP). For colocalization/trafficking analysis with organelles in iPSC‐Ns, HEK293 cells, and 3D organoids, APP or CAPRIN1 with organelles signals were segmented using a trainable weka segmentation plugin in Fiji as previously described. Colocalized areas were calculated in the image calculator tool ([…] function) to get an overlayed area for the segmented signals, followed by using the analyze particle tool in Fiji to determine by > 1‐pixel overlapping of the segmented signal. To determine the fluorescence intensity, the corrected total cell fluorescence (CTCF) was used using the formula: CTCF = Integrated Density—(Area of selected cell x Mean fluorescence of background readings), as described previously. Bright‐field images of immunoperoxidase‐stained and Thioflavin S‐stained brain sections were exported as 16‐bit RGB TIFF files and analyzed using ImageJ (Fiji), following previously established protocols. To isolate the DAB signal for quantification, color deconvolution was performed using the “H DAB” setting in the Color Deconvolution plugin in ImageJ. The resulting “Colour_2” image, corresponding to the DAB chromogen, was converted to 8‐bit grayscale for further analysis. Manual thresholding was applied to the DAB channel using the threshold adjustment tool in ImageJ. […] Regions of interest (ROIs), specifically the subiculum, hippocampus, and cortex, were manually delineated based on anatomical landmarks and saved using the ROI Manager. For each ROI, the DAB‐positive area was quantified using the Analyze Particles plugin with default particle size settings. The percentage of DAB‐positive area was calculated as the ratio of the DAB‐positive area to the total area of each ROI.

Data set [2] is described as follows: IV and PO pharmacokinetics in mice. The note with it: male; for AUC(0-t) / half-life / C0 / Tmax / Cmax: mouse plasma; for C0 / Cmax: read-out: C0/Cmax; for bioavailability: C57BL/6, mouse, plasma, oral, 10 mg/kg, PO 10 mpk vs IV 1 mpk, read-out: %F (oral bioavailability); for bioavailability / clearance / Vd: mouse; for clearance / Vd: C57BL/6, plasma, 1 mg/kg; for Vd: read-out: Vss. The class given is in vivo, C57BL/6 male mice. Here is the method:
IV and PO PK in rodents were processed by Sai Life Sciences Pvt. Ltd using 8‐ to 10‐week‐old C57BL/6 male mice following a single intravenous administration at 1 mg/kg and oral administration at 10 mg/kg. A total of eighteen mice (n = 9/group) were divided into two groups as Group 1 and Group 2, with a sparse sampling design (3 mice/time points). Animals in Group 1 were administered intravenously as slow bolus injections through the tail vein at 1 mg/kg dose, and animals in Group 2 were administered through the oral route at 10 mg/kg. For 0043, the formulation vehicle used for IV group was 5% NMP, 10% PG, 5% Solutol HS‐15, and 80% Captisol (10% w/v in RO water), and the formulation used for the PO group was 10% NMP, 10% PG, 10% TPGS, and 70% Captisol (10% w/v in RO water). For 0152, the formulation vehicle used for IV group was 5% DMSO, 20% Solutol HS‐15, and 75% PBS, and the formulation used for PO group was 5% NMP, 10% PG, 5% Solutol HS‐15, and 80% Captisol (10% w/v in RO water). Blood samples (approximately 60 µL) were collected under light isoflurane anesthesia (Surgivet) from retro orbital plexus from a set of three mice at 0.08, 0.25, 0.5, 1, 2, 4, 6, 8 and 24 h for IV and […], 0.5, 1, 2, 4, 6, 8 and 24 h for PO. Immediately after blood collection, plasma was harvested by centrifugation at 10 000 rpm, 10 min at […], and samples were stored at ‐70±10°C until bioanalysis. All samples were processed for analysis by the protein precipitation method and analyzed with a fit‐for‐purpose LC‐MS/MS method (LLOQ = 1.01 ng/mL). The plasma pharmacokinetic parameters were estimated using the non‐compartmental analysis tool of Phoenix WinNonlin software (Ver 8.3).

Take `N#Cc1cccc(NC(=O)Nc2nc3ccc(C(=O)N4CCOCC4)cc3s2)c1` [compound 0043]: the “APP–LAMP1 colocalization” value in data set [1] (10 µM, 24 h) is listed as “increased APP–LAMP1 colocalization”. Also, in data set [1] (AG27606-Ns, 10 µM, 0, 3 or 7 h), the “APP colocalization with EEA1, Rab7 and LAMP1” value is given as “significantly increased APP colocalization with all three markers”; the “CAPRIN1 colocalization with Rab7 and LAMP1” value was “increase its colocalization with both markers”. In data set [2] (C57BL/6, 1 mg/kg, IV, 1 mpk), the AUC(0-t) (in general, exposure summed from dosing to a finite time, without extrapolation to infinity) worked out at 219 ng·h/mL; the half-life (commonly the time in which the quantity being followed falls by half) was 9.6 min; the C0 was determined as 1380 ng/mL. In data set [2] (C57BL/6, 10 mg/kg, PO, 10 mpk), the AUC(0-t) stood at 107 ng·h/mL, the Tmax (commonly the time at which the peak concentration occurs) came to 15 min, the half-life was 95.4 min and the Cmax stood at 97.5 ng/mL. Moreover, the bioavailability (usually dose-corrected exposure relative to a reference, in per cent) in data set [2] stood at 5%. Further, in data set [2] (IV, 1 mpk), the clearance was determined as 75.3 mL/min/kg and the Vd came to 0.77 L/kg.

As to `COc1cccc(NC(=O)Nc2nc3ccc(C(=O)N4CCOCC4)cc3s2)c1` [compound 0152], in data set [1] (10 µM, 24 h), the “APP–LAMP1 colocalization” value was “increased APP–LAMP1 colocalization”. In addition, in data set [1] (AG27606 neurons, 10 µM, 24 h), the “Colocalization of APP and CAPRIN1 with GGA1” value is “enhanced the colocalization of both APP and CAPRIN1 with GGA1”; the “Colocalization of APP and CAPRIN1 with SorLA” value was “reduced the colocalization of both APP and CAPRIN1 with SorLA”. In addition, in data set [2] (C57BL/6, 1 mg/kg, IV, 1 mpk), the AUC(0-t) turned out to be 209 ng·h/mL, the half-life is 25.2 min and the C0 is 938 ng/mL. Further, in data set [2] (C57BL/6, 10 mg/kg, PO, 10 mpk), the AUC(0-t) turned out to be 624 ng·h/mL, the Tmax was determined as 30 min, the half-life was 144 min and the Cmax worked out at 804 ng/mL. Also, the bioavailability in data set [2] is at most 30%. For the same compound, in data set [2] (IV, 1 mpk), the clearance turned out to be 78.6 mL/min/kg and the Vd was found to be 1.34 L/kg.

The values above are taken from publication PMC13534789, “Molecular Glue Degraders Enhance CAPRIN1‐Dependent Lysosomal Degradation of APP and Reduce Amyloid β in Alzheimer's Disease” (Advanced Science, 2026).
